What was measured:
[1] = system: G-proteins; details: cited from earlier work; for stimulation of G-proteins in vitro: ref Oppi et al., 1992
[2] = system: vacuole-to-vacuole fusion; assay: in vitro vacuole-to-vacuole fusion assay; format: biochemical, Saccharomyces cerevisiae; details: for effect on in vitro vacuole-to-vacuole fusion (in words): added to standard reaction, Figs. 5, 7 A or data not shown; for effect on inter-vacuole fusion: Fig. 7 A
[3] = system: isolated vacuoles; assay: microscopic in vitro fusion assay with CDCFDA-labeled vacuoles; design: species or system Saccharomyces cerevisiae; details: standard fusion reaction, 120 min; for vacuole fusion / morphology seen by fluorescence microscopy: 20 uM, Fig. 6 D, E, G, H

LNAKLKAIALALIK-NH2 [mas-PEP7]
stimulation of G-proteins in vitro [1]: do not stimulate G-proteins in vitro
effect on in vitro vacuole-to-vacuole fusion (in words) ([2]; 25C, 120 min): inactive in the fusion assay

N#CC(C#N)=NNc1cccc(Cl)c1 [CCCP, carbonyl cyanide m-chlorophenyl-hydrazone]
vacuole fusion / morphology seen by fluorescence microscopy [3]: blocked vacuole fusion
effect on in vitro vacuole-to-vacuole fusion (in words) ([2]; 25C, 120 min): inhibited vacuole fusion in vitro

NC[C@@H]1O[C@H](O[C@H]2[C@@H](O)[C@H](O[C@@H]3[C@@H](O)[C@H](N)C[C@H](N)[C@H]3O[C@H]3O[C@H](CN)[C@@H](O)[C@H](O)[C@H]3N)O[C@@H]2CO)[C@H](N)[C@@H](O)[C@@H]1O [Neomycin]
vacuole fusion seen by fluorescence microscopy ([3]; 0.6 mM, Fig. 6 C): blocked vacuole fusion
concentration that blocks inter-vacuole fusion ([2]; standard reaction, 25C, 120 min, Fig. 5 A): 0.2 mM

Triton X-100
influence on the inhibition of fusion by mastoparan ([2]; 0-30 ug/ml plus 20 uM mastoparan, Fig. 8): did not influence the effects of mastoparan on fusion
fusion in standard fusion reactions ([2]; added at 0.01%, data not shown): no fusion could be observed
effect on vacuole fusion ([2]; detergent control, up to highest concentration tested, 30 ug/ml, Fig. 8): did not inhibit vacuole fusion

CO/C1=C\C(C)=C\[C@@H](C)[C@@H](O)[C@@H](C)C/C(C)=C/C=C/[C@H](OC)[C@@H]([C@@H](C)[C@@H](O)[C@H](C)[C@@]2(O)C[C@@H](O)[C@H](C)[C@@H](C(C)C)O2)OC1=O [bafilomycin Al]
vacuole fusion / morphology seen by fluorescence microscopy [3]: blocked vacuole fusion
effect on in vitro vacuole-to-vacuole fusion (in words) ([2]; 25C, 120 min): inhibited vacuole fusion in vitro

NILALAKALIKALK-NH2 [mas-PEP8]
stimulation of G-proteins in vitro [1]: potent G-protein activators

Lithium
effect on in vitro vacuole-to-vacuole fusion (in words) ([2]; 25C, 120 min): did not influence the fusion reactions

benzalkonium chloride [BAC]
concentration of maximal inhibition of inter-vacuolar fusion ([2]; alone in standard fusion assay, Fig. 8): 10 #g/ml

mastoparan
effect on in vitro vacuole-to-vacuole fusion (in words) ([2]; 25C, 120 min): inhibited

INLQALALAALAQALL-NH2 [Mas7[Q4;Q11]]
vacuole fusion / morphology seen by fluorescence microscopy [3]: only a weak influence
stimulation of G-proteins ([1]; ref Higashijima, T., personal communication): does not stimulate G-proteins
relief of the inhibition caused by mas7 ([2]; both compounds added together, data not shown): did not relieve
effect on inter-vacuole fusion ([2]; concentrations up to 50 uM, standard reaction): did not inhibit
effect on inter-vacuole fusion ([2]; very high concentration, 100 uM, standard reaction): did inhibit

Nc1nc2c(ncn2[C@@H]2O[C@H](COP(=O)(O)OP(=O)(O)OP(O)(O)=S)[C@@H](O)[C@H]2O)c(=O)[nH]1 [GTP3,S, Guanosine 5'-0-(3-thiotriphosphate)]
vacuole fusion seen by fluorescence microscopy ([3]; 1.0 mM, Fig. 6 F): fusion was largely inhibited

F [fluoride]
effect on in vitro vacuole-to-vacuole fusion (in words) ([2]; 25C, 120 min): inhibitory

LKIALNLKALIAAK-NH2 [MAS-PEP2]
stimulation of G-proteins in vitro [1]: do not stimulate G-proteins in vitro
effect on in vitro vacuole-to-vacuole fusion (in words) ([2]; 25C, 120 min): inactive in the fusion assay
